45 compounds from the Biogen ADME set (Fang et al. 2023) can be followed below.

For the series the following is noted: for aqueous solubility: pH 6.8.

The structures appear in SMILES notation. In brackets after ≈: the same amount, converted by molar mass.

Turning to `CC(=O)N1CCC(C(=O)Nc2nccs2)(c2ccccc2)CC1`, the MDR1-MDCK efflux ratio stood at 39.4; the intrinsic clearance, human liver microsomes came out at 5.73 mL/min/kg; the intrinsic clearance, rat liver microsomes came out at 236 mL/min/kg; the aqueous solubility (commonly how much of the substance goes into solution per volume) amounted to 62.3 µg/mL (≈ 189 µM).

As for `Cc1ccccc1OCCCNc1cc(Cn2c(C)nc3ccccc32)nc(N)n1`, the MDR1-MDCK efflux ratio turned out to be 21.4; the intrinsic clearance, human liver microsomes is 717 mL/min/kg; the intrinsic clearance, rat liver microsomes worked out at 2130 mL/min/kg; the aqueous solubility turned out to be 14.4 µg/mL (≈ 35.9 µM).

Consider `CN(C)C1CN(c2nc(-c3cnccn3)nc3sc4c(c23)CCCC4)C1`, for which the MDR1-MDCK efflux ratio was 1.17; the intrinsic clearance, human liver microsomes came to 92.5 mL/min/kg; the intrinsic clearance, rat liver microsomes was 2720 mL/min/kg; the aqueous solubility worked out at 37 µg/mL (≈ 101 µM).

For the compound `Cc1cc(C)c2[nH]c(C(=O)N3CC[C@@](O)(CC(C)C)[C@@H](Oc4ccc(F)cc4)C3)c(C)c2c1`, the MDR1-MDCK efflux ratio is 4.89; the intrinsic clearance, human liver microsomes is 140 mL/min/kg; the intrinsic clearance, rat liver microsomes came to 1910 mL/min/kg.

For the compound `c1cc(CN2CCC(c3ccn[nH]3)CC2)ccn1`, the MDR1-MDCK efflux ratio was 1.05; the intrinsic clearance, human liver microsomes came out at 5.91 mL/min/kg; the intrinsic clearance, rat liver microsomes turned out to be 32.1 mL/min/kg; the aqueous solubility stood at 28.2 µg/mL (≈ 116 µM).

Regarding `CC1(C)O[C@@](C)([C@H]2CC3(CCNCC3)CO2)CC[C@@H]1O`, the MDR1-MDCK efflux ratio was determined as 0.443; the intrinsic clearance, human liver microsomes is no more than 4.74 mL/min/kg; the intrinsic clearance, rat liver microsomes was no more than 10.7 mL/min/kg; the aqueous solubility amounted to 42.6 µg/mL (≈ 150 µM).

With `O=C(Nc1nc2ccccc2[nH]1)C1CCCCC1`, the MDR1-MDCK efflux ratio amounted to 0.721; the intrinsic clearance, human liver microsomes turned out to be 15.5 mL/min/kg; the intrinsic clearance, rat liver microsomes was determined as 189 mL/min/kg; the aqueous solubility was found to be 2.44 µg/mL (≈ 10 µM).

Regarding `O[C@H]1CC[C@H](Nc2ncc3nc(Nc4c(F)cc(F)cc4F)n([C@H]4CCOC4)c3n2)CC1`, the MDR1-MDCK efflux ratio stood at 93.4; the intrinsic clearance, human liver microsomes is no more than 4.74 mL/min/kg; the intrinsic clearance, rat liver microsomes came to 10.9 mL/min/kg.

For `c1nc(NC2CCN(C3CC3)CC2)c2sccc2n1`, the MDR1-MDCK efflux ratio was determined as 1.24; the intrinsic clearance, human liver microsomes was 17.4 mL/min/kg; the intrinsic clearance, rat liver microsomes was found to be 80.6 mL/min/kg; the aqueous solubility was determined as 56.2 µg/mL (≈ 205 µM).

Consider `CC(C)(C)n1ncc(OCc2ccc(OCCOCCO)nc2)c(Cl)c1=O`, for which the MDR1-MDCK efflux ratio is 4.55; the intrinsic clearance, human liver microsomes amounted to 8.19 mL/min/kg; the intrinsic clearance, rat liver microsomes was found to be 88.1 mL/min/kg; the aqueous solubility amounted to 32.5 µg/mL (≈ 81.7 µM).

For the compound `Cn1c(NC(=O)C2CC2c2ccc(Cl)cc2)nc2ccccc21` (stereo not given), the aqueous solubility is 0.3 µg/mL (≈ 0.921 µM).

`COc1ccc(C2(NCc3cnn(-c4ccccc4)c3)CCCC2)cc1`: the intrinsic clearance, human liver microsomes was determined as 81.5 mL/min/kg; the intrinsic clearance, rat liver microsomes turned out to be 976 mL/min/kg; the aqueous solubility came to 57.4 µg/mL (≈ 165 µM).

On to `O=C(Nc1nc2ccccc2[nH]1)c1ccc(-c2ccccc2)cc1`, for which the aqueous solubility worked out at 0.5 µg/mL (≈ 1.6 µM).

For the compound `O=C(c1cccc2ccccc12)N1CCCC(C(=O)N2CCc3ccccc3C2)C1` (stereo not given), the MDR1-MDCK efflux ratio was 5.83; the intrinsic clearance, human liver microsomes is 696 mL/min/kg; the intrinsic clearance, rat liver microsomes stood at 4470 mL/min/kg; the aqueous solubility was 56.4 µg/mL (≈ 142 µM).

Take `CC(=O)N1CCC(Cn2ccnc2-c2cc3ccccc3s2)CC1`: the MDR1-MDCK efflux ratio worked out at 14; the intrinsic clearance, human liver microsomes worked out at 46.5 mL/min/kg; the intrinsic clearance, rat liver microsomes was 357 mL/min/kg; the aqueous solubility came out at 35.2 µg/mL (≈ 104 µM).

For the compound `O=C(O)c1cc(/C=C/c2csnn2)nc2ccccc12`, the MDR1-MDCK efflux ratio was found to be 2.08; the intrinsic clearance, human liver microsomes is no more than 4.74 mL/min/kg; the intrinsic clearance, rat liver microsomes was no more than 10.7 mL/min/kg; the aqueous solubility was 15.7 µg/mL (≈ 55.4 µM).

`CCOc1ccc(C(=O)Nc2cc(C(=O)OC)ccc2N2CCN(C(C)=O)CC2)cc1`: the MDR1-MDCK efflux ratio turned out to be 5.81; the intrinsic clearance, human liver microsomes was determined as 21.8 mL/min/kg; the intrinsic clearance, rat liver microsomes was 444 mL/min/kg; the aqueous solubility was determined as 2.41 µg/mL (≈ 5.66 µM).

As for `CC(C)c1nnc(NCc2ccn(C)c2)o1`, the MDR1-MDCK efflux ratio was found to be 0.768; the intrinsic clearance, human liver microsomes is no more than 4.74 mL/min/kg; the intrinsic clearance, rat liver microsomes stood at 63.1 mL/min/kg; the aqueous solubility was 17.9 µg/mL (≈ 81.2 µM).

Take `O=C(C1CCC(O)CC1)N1CCCN(c2ccc(F)cc2)CC1` (stereo not given): the MDR1-MDCK efflux ratio came to 4.68; the intrinsic clearance, human liver microsomes came to 11.9 mL/min/kg; the intrinsic clearance, rat liver microsomes came out at 206 mL/min/kg; the aqueous solubility came to 80.7 µg/mL (≈ 252 µM).

On to `O=C(Cc1cccc2ccccc12)NCc1nnc2n1-c1ccccc1CC2`, for which the MDR1-MDCK efflux ratio is 45; the intrinsic clearance, human liver microsomes was 239 mL/min/kg; the intrinsic clearance, rat liver microsomes was found to be 1730 mL/min/kg; the aqueous solubility amounted to 46.7 µg/mL (≈ 127 µM).

With `Cn1cnnc1-c1cccc(NS(=O)(=O)c2cc3c(cc2Cl)OCCO3)c1`, the MDR1-MDCK efflux ratio stood at 16.9; the intrinsic clearance, human liver microsomes stood at 16 mL/min/kg; the intrinsic clearance, rat liver microsomes turned out to be 308 mL/min/kg.

With `CC(C)[C@@](C)(O)[C@@H]1CN(c2nc(-c3n[nH]c4ncccc34)c(F)cc2Cl)CCN1`, the fraction unbound, human plasma stood at 0.201 and the fraction unbound, rat plasma worked out at 0.0419.

Take `c1ccc(Cc2n[nH]c(CSc3ccccc3)n2)cc1`: the MDR1-MDCK efflux ratio came out at 0.734; the intrinsic clearance, human liver microsomes stood at 89.2 mL/min/kg; the intrinsic clearance, rat liver microsomes was 1320 mL/min/kg; the aqueous solubility was 16.8 µg/mL (≈ 59.8 µM).

For the compound `Cc1ccc2[nH]c(C3CN(C(=O)Cc4cccc5ccccc45)C3)nc2c1`, the MDR1-MDCK efflux ratio was determined as 15.2 and the aqueous solubility turned out to be 0.3 µg/mL (≈ 0.844 µM).

With `Cc1nc(C2CCN(Cc3ccc(C(F)(F)F)cc3)CC2)n[nH]1`, the intrinsic clearance, human liver microsomes came to 6 mL/min/kg and the intrinsic clearance, rat liver microsomes worked out at 14.1 mL/min/kg.

`CCc1nnc(Nc2cccc(C3CCCN(CC(=O)N4CCCC4)C3)n2)s1` (stereo not given): the MDR1-MDCK efflux ratio came out at 35; the intrinsic clearance, human liver microsomes stood at 48.7 mL/min/kg; the intrinsic clearance, rat liver microsomes worked out at 186 mL/min/kg; the aqueous solubility turned out to be 53.5 µg/mL (≈ 134 µM).

Regarding `CON(C)C(=O)Cc1c(C)[nH]c2ccccc12`, the MDR1-MDCK efflux ratio is 0.627; the intrinsic clearance, human liver microsomes is no more than 4.74 mL/min/kg; the intrinsic clearance, rat liver microsomes turned out to be 70.4 mL/min/kg; the aqueous solubility is 53 µg/mL (≈ 228 µM).

In the case of `Cc1ccc(C2=NC3(CCN(Cc4ccc(F)cc4)CC3)NC2=O)cc1`, the MDR1-MDCK efflux ratio was 0.541; the intrinsic clearance, human liver microsomes is 11.2 mL/min/kg; the intrinsic clearance, rat liver microsomes came out at 669 mL/min/kg; the aqueous solubility worked out at 12.7 µg/mL (≈ 36.2 µM).

Take `CCN(C(=O)N1CCC(OC2CCOCC2)CC1)C(C)C`: the MDR1-MDCK efflux ratio amounted to 0.763; the intrinsic clearance, human liver microsomes was 21.6 mL/min/kg; the intrinsic clearance, rat liver microsomes came out at 155 mL/min/kg; the aqueous solubility is 56.1 µg/mL (≈ 188 µM).

Consider `Cc1cc2cc(C(=O)N(Cc3ccc4c(c3)OCO4)C3CC3)ccc2o1`, for which the MDR1-MDCK efflux ratio was found to be 0.28; the intrinsic clearance, human liver microsomes was 127 mL/min/kg; the intrinsic clearance, rat liver microsomes came out at 1730 mL/min/kg; the aqueous solubility was 11.7 µg/mL (≈ 33.6 µM).

For the compound `c1ccc(Nc2nc(N3CCNCC3)nc(N3CCOCC3)n2)cc1`, the MDR1-MDCK efflux ratio is 43.2; the intrinsic clearance, human liver microsomes is no more than 4.74 mL/min/kg; the intrinsic clearance, rat liver microsomes is 57 mL/min/kg.

For `C[C@@H](NC(=O)c1cc(Br)c2c(c1)OCCO2)c1cn(-c2ccccc2)nn1`, the MDR1-MDCK efflux ratio is 3.48.

`Nc1ccc2c(c1)ncn2-c1ccccc1` gave an intrinsic clearance, human liver microsomes of 7.59 mL/min/kg and an intrinsic clearance, rat liver microsomes of 25.3 mL/min/kg.

In the case of `CC(=O)Nc1nc(-c2c(C)cc(C)cc2C)cs1`, the MDR1-MDCK efflux ratio came out at 0.559; the intrinsic clearance, human liver microsomes stood at 24.9 mL/min/kg; the intrinsic clearance, rat liver microsomes was 2360 mL/min/kg; the aqueous solubility is 19.2 µg/mL (≈ 73.7 µM).

Regarding `O=C(c1cc(F)ccc1F)N1CCN(C(=O)C2CC2)CC1`, the MDR1-MDCK efflux ratio came to 1.21; the intrinsic clearance, human liver microsomes is no more than 4.74 mL/min/kg; the intrinsic clearance, rat liver microsomes worked out at 19.8 mL/min/kg.

Consider `CONC(=O)c1ccccc1Nc1cc(Nc2cc(C)nn2C(C)C)ncc1Cl`, for which the intrinsic clearance, human liver microsomes amounted to 66.2 mL/min/kg; the intrinsic clearance, rat liver microsomes is 262 mL/min/kg; the aqueous solubility worked out at 24.2 µg/mL (≈ 58.4 µM).

Consider `CC(C)(C)c1nc(Cn2nnc3ccccc3c2=O)no1`, for which the MDR1-MDCK efflux ratio amounted to 0.68; the intrinsic clearance, human liver microsomes was no more than 4.74 mL/min/kg; the intrinsic clearance, rat liver microsomes came to 119 mL/min/kg; the aqueous solubility amounted to 34.7 µg/mL (≈ 122 µM).

With `O=C(O)c1ccc(CCC(=O)N2CCc3c(F)cc(F)cc3C2)cc1`, the MDR1-MDCK efflux ratio is 4.05; the intrinsic clearance, human liver microsomes was no more than 4.74 mL/min/kg; the intrinsic clearance, rat liver microsomes was no more than 10.7 mL/min/kg.

Regarding `c1sc(NCC2CCCO2)nc1C12CC3CC(CC(C3)C1)C2` (stereo not given), the MDR1-MDCK efflux ratio stood at 0.537; the fraction unbound, human plasma amounted to 0.0008; the intrinsic clearance, human liver microsomes came to 45.7 mL/min/kg.

Consider `O=C(CCc1ccc2c(c1)OCO2)Nc1cccc2cnccc12`, for which the MDR1-MDCK efflux ratio stood at 1.01; the intrinsic clearance, human liver microsomes was 41.9 mL/min/kg; the intrinsic clearance, rat liver microsomes worked out at 300 mL/min/kg; the aqueous solubility turned out to be 44.7 µg/mL (≈ 140 µM).

Consider `CC(C)(C)c1csc(Cn2ccnc2-c2ccccn2)n1`, for which the intrinsic clearance, human liver microsomes was determined as 122 mL/min/kg and the intrinsic clearance, rat liver microsomes was 2620 mL/min/kg.

For `CC(=O)N(C)[C@@H]1CO[C@@H]2CCN(C[C@]3(O)CC[C@@H](C(C)(C)C)CC3)C[C@@H]2C[C@@]1(C)O`, the MDR1-MDCK efflux ratio is 23.5; the intrinsic clearance, human liver microsomes stood at 65 mL/min/kg; the intrinsic clearance, rat liver microsomes turned out to be 276 mL/min/kg.

Regarding `Brc1ccc(-c2nnc(Cn3cnc4ccccc43)o2)o1`, the MDR1-MDCK efflux ratio turned out to be 0.976; the intrinsic clearance, human liver microsomes is no more than 4.74 mL/min/kg; the intrinsic clearance, rat liver microsomes turned out to be 41.1 mL/min/kg; the aqueous solubility amounted to 62.7 µg/mL (≈ 182 µM).

Take `O=C(Nc1nncs1)c1cccnc1`: the MDR1-MDCK efflux ratio worked out at 1.04; the intrinsic clearance, human liver microsomes is no more than 4.74 mL/min/kg; the intrinsic clearance, rat liver microsomes was no more than 10.7 mL/min/kg; the aqueous solubility is 44.3 µg/mL (≈ 215 µM).

With `CC(C)OCCS(=O)(=O)N1CCc2ccccc2CC1`, the MDR1-MDCK efflux ratio worked out at 0.666; the intrinsic clearance, human liver microsomes came out at 134 mL/min/kg; the intrinsic clearance, rat liver microsomes amounted to 3140 mL/min/kg.
